Assay results published in publication PMC10285738, “Identification of macrocyclic peptides which activate bacterial cylindrical proteases” (RSC Medicinal Chemistry, 2023).
Entries after “also recorded” stand apart in the source; their conditions may differ.

Assays:
[1] = target: T1, Sa.ClpP (Staphylococcus aureus, UniProt Q2G036); assay: FtsZ degradation by Sa.ClpP, SDS-PAGE; format: biochemical, S. aureus; conditions: 200 µM, ADEP2 at 10 µM, Sa. FtsZ 4.0 µM, 24 h, SDS-PAGE densitometry, at least three independent experiments, Fig. 4D
T1 construct: Strep-tag (C); made in house; host or cells: E. coli SG1146a (lacks endogenous ClpP)
T1 sequence (Q2G036 whole entry): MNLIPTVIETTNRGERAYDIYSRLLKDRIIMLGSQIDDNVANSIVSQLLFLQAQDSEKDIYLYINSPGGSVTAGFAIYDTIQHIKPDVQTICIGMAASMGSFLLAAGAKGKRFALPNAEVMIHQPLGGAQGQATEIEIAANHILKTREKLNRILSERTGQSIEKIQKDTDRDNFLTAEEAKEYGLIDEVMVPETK
From the text: Lastly, we set out to answer to what extent ADEP and other allosteric activators of ClpP resemble the activation process of ClpX. To this end, we set up a biochemical assay and monitored the digestion of FtsZ, an essential protein for cell division, which is the major determinant for the filamentation phenotype induced by ADEP-activated ClpP.[17] […] We performed docking studies of the identified macrocycles into the same pocket where ADEP binds (see ESI ^† for full details).
(§1) Walther et al. Supporting Information
FITC casein degradation rate
(§2) All concentrations are given as final concentrations. Ligands were incubated at 200 µM in the […]
The linear part of the fluorescence curve was used to determine the relative degradation rate. Data analysis was performed by OriginPro […]
(§3) Beta-casein degradation by Ec.ClpP or Sa.ClpP
(§4) All concentrations are given as final concentrations. Ligands were incubated at 200 µM in […]
(§5) Aliquots were drawn at the
(§6) Gels were run at constant voltage […]
(§7) concentration was 200 µM. The results from densitometric analysis were plotted in Graphpad […]
Data is represented as mean ± SD of three independent experiments.
FtsZ degradation by Sa.ClpP […]
at a final concentration of 4.0 µM. […]
casein degradation assay. […]
SD of duplicates of at least two independent experiments. […]
equilibrated Superdex 200 Increase 10/300 GL column (Cytiva). Stabilization of Sa.ClpP in […]

[2] = target: T1, Sa.ClpP; assay: Thermal shift assay (differential scanning fluorimetry); format: binding; conditions: S. aureus ClpP 5 µM, ligand 200 µM, HEPES 100 mM pH 7, NaCl 150 mM, sypro orange 5x, 30-90 °C in 0.5 °C increments; mean ± SD of duplicates of at least two independent experiments
From the text: All concentrations are given as final concentrations. […]
real-time qPCR (Bio-Rad CF X96).
SD of duplicates of at least two independent experiments.
equilibrated Superdex 200 Increase 10/300 GL column (Cytiva). […]

[3] = target: T1, Sa.ClpP; assay: beta-casein degradation by Sa.ClpP, SDS-PAGE; format: biochemical, S. aureus; conditions: ligands at 200 µM, ADEP2 at 10 µM, ClpP 1.0 µM, 24 h at 37 °C, Fig. 4A
Method: as §3, §4, §5, §6, §7
(§8) Data is represented as mean ± SD of three independent experiments. […]

[4] = test system: Ec.ClpP; conditions: 200 µM peptide, E. coli ClpP 0.5 µM, FITC-casein 1.8 µM + beta-bovine casein 4.8 µM, Tris HCl 100 mM pH 7.6, KCl 100 mM, 24 h at 37 °C, exc. 483 nm, em 530 nm; duplicates of at least two independent experiments; vs DMSO
Method: Next, we screened for enzymatic activation of ClpP to quickly assess the chemical library for binding and understand whether IGF-bearing macrocyclic peptides could modulate ClpP enzymatic function. Modulation of ClpP was assessed using a biochemical assay monitoring the enzymatic function of the protease based on previously reported successes for the identification of allosteric activators of ClpP.[9] […] FITC-casein, a protein labeled with fluorescein to the extent of self-quenching, is a suitable substrate for this assay, as it can only enter the proteolytic core upon apical pore opening and is indirectly a measure for the conformational state of the protease.[2,10] Enzymatic degradation of FITC-casein alleviates self-quenching giving rise to an increased fluorescence intensity and an easy readout for our purpose to identify any ligand that positively modulates the enzymatic activity of recombinant E. coli ClpP (Ec.ClpP).
Ec.ClpP was incubated for 24 h at 37 °C in the presence of a peptide library, or vehicle (DMSO) and fluorescence intensity was measured thereafter (Fig. 2C and S1 ^†). […] This was reproducibly confirmed in three independent experiments (varying the batch of enzyme).

[5] = test system: Ec.ClpP; conditions: 200 µM ligand, ClpP 1.0 µM, 24 h at 37 °C, SDS-PAGE densitometry, at least three independent experiments, Fig. 3D
Method: presence of E. coli ClpP or S. aureus ClpP (1.0 µM), and bovine beta-casein (Sigma-Aldrich –
catalogue number C6905, 5.0 µM or 3 µM) in Tris HCl buffer (100 mM, pH 7.6) with KCl (100 mM)
or HEPES buffer (100 mM, pH 7) with NaCl (150 mM) at 37 °C. Aliquots were drawn at the
indicated time points, quenched with SDS-loading buffer and heated to 90 °C for 5 min. Beta-
casein digestion was visualized by non-reducing Tris-glycine SDS-PAGE with 12 % acrylamide
and 4 % stacking gel or reducing Bolt 4-12% Bis-Tris Plus gels. Gels were run at constant voltage
(160-200 V) for 60 min and visualized with Coomassie brilliant blue dye. Protein bands were
quantified by densitometry using ImageJ from at least three independent experiments.
A two-fold dilution series in DMSO was performed to keep DMSO content identical. Highest
Prism and a non-linear fit was applied to estimate the EC50. Data is represented as mean ± SD of three independent experiments.

[6] = FITC-casein fluorescence with/without Ec.ClpP (false-positive control); conditions: 200 µM, with vs without Ec.ClpP, 24 h at 37 °C, Fig. S2
Method: as §1
Protein purification and isolation […]
expressed in E. coli C41 (DE3) cells. A single colony was incubated overnight in 2xYT media containing ampicillin (0.1 mg/mL) at 37 °C. Subsequently 10 mL of the overnight inoculum was […]
applied to a Ni-NTA affinity column (GE Healthcare). The column was washed with an increasing […]
Protein containing fraction
10 mM MgCl2, glycerol 10 % (v/v)). The pure protein sample was obtained after size exclusion […]
0.5 mM EDTA, 100 mM KCl, 10 % glycerol).
After 18 hours of growth at 25 °C, cells […]
mM Tris-HCl, 1 mM EDTA, pH 8).
Here, the protein was eluted with an isocratic gradient of buffer containing 50 mM biotin. Protein was concentrated and buffer […]
stocks were stored in storage buffer at -20 °C. For long term storage, samples were stored at -80 […]
FITC casein degradation screen
as §2
samples is subtracted from all samples.

[7] = target: T1, Sa.ClpP; assay: Dose-response of beta-casein degradation by Sa.ClpP; format: biochemical, S. aureus; conditions: two-fold dilution series in DMSO, highest concentration 200 µM, densitometry, non-linear fit; three independent experiments; Fig. 4B; read-out: EC50 (effective dose), Sa.ClpP-dependent digestion of beta-casein
Method: as §3, §4, §5, §6, §7, §8

[8] = test system: ClpP; conditions: in words, through another mechanism; cited from earlier work
Method: Modulation of ClpP was assessed using a biochemical assay monitoring the enzymatic function of the protease based on previously reported successes for the identification of allosteric activators of ClpP.[9]

[9] = target: T1, Sa.ClpP; assay: Gel filtration (SEC) of ClpP oligomeric state; parameters: species or system S. aureus; conditions: Sa.ClpP 1 mg/mL, ligand 200 µM, destabilizing buffer Tris-HCl 100 mM pH 7.6, 100 mM KCl, overnight at 32 °C; Superdex 200

| SMILES | Sa.ClpP-dependent Sa.FtsZ digestion [1] | apparent increase in melting temperature of Sa.ClpP [2] [°C] | activation of Sa.ClpP (beta-casein digestion) [3] | increase in fluorescence intensity / enzymatic activation of Ec.ClpP (FITC-casein) [4] | Ec.ClpP-dependent beta-casein digestion [5] | fluorescence signal in presence or absence of Ec.ClpP (false-positive check) [6] | EC50 [7] [µM] | effect on enzymatic function of ClpP homologues [8] | stabilization/retention of tetradecameric Sa.ClpP [9] |
| --- | --- | --- | --- | --- | --- | --- | --- | --- | --- |
| CC[C@H](C)[C@@H]1NC(=O)CNC(=O)[C@@H](NC(C)=O)CSCC(=O)CSC[C@@H](C(N)=O)NC(=O)CNC(=O)[C@H](Cc2ccccc2)NC(=O)CNC1=O [P4-B] | also induced the digestion of FtsZ, yet less efficiently | 0.6 ± 0.2 | able to activate the enzymatic function of Sa.ClpP | significant increase of fluorescence intensity over the DMSO-treated sample | control of Ec.ClpP function was confirmed by SDS-PAGE analysis of beta-casein digestion | did not exhibit this behaviour | > 100 |  |  |
| CC(C)C[C@H](NC(=O)[C@H](Cc1ccccc1)NC(=O)c1cnccn1)B(O)O [bortezomib] |  |  |  |  |  |  |  | able to increase enzymatic function of ClpP homologues |  |
| CCCC/C=C/C(=O)N[C@@H](Cc1cc(F)cc(F)c1)C(=O)OC [compound 2, reference compound] | activated Sa.ClpP, and FtsZ was digested |  |  |  |  |  |  |  | able to retain the tetradecamer in Tris-HCl; also recorded: able to rescue and stabilize the tetradecameric structure of Sa.ClpP |
